# According to patent publication US11903926B1, “Non-hormonal treatment of hot flashes” (priority 2012, dated 2024):
# Where two headings read alike, the source gives them in different places.
# What was measured:
# [1] = system: women with dramatic vasomotor hot flashes and sleep disruption; assay: Clinical study of six women with vasomotor hot flashes and sleep disruption, symptoms graded 0-4; format: in vivo; conditions: for effect on vasomotor / hot flash symptoms (in words) / effect on sleep (in words): six women, agent alone; for effect on vasomotor / hot flash symptoms (in words): versus untreated; for Hot Flash Severity: grade 0-4 (duration), average of six women; for Hot Flash Frequency: end of treatment period (up to four weeks), ropinirole 4 mg, tizanidine 4 mg, clonidine 0.1 mg, rotigotine 1 mg, pramipexole 1.5 mg, chlorpromazine 25 mg, haloperidol 1 mg, venlafaxine 75 mg, paroxetine 20 mg, gabapentin 300 mg, pregabilin 50 mg
# Procedure: Patients were on each regimen at the doses cited for up to four weeks.
# Symptoms were evaluated on a scale from 0 to 4, with 0 being not affected, 1 being mild, 2 being moderate, 3 being severe, and 4 being a very severe expression of either vasomotor symptom frequency, severity, sweating, falling asleep and waking during the night for each patient and evaluated at the end of the treatment period. The findings reported are based on an average of the reported symptoms of the six women studied.
# Specifically, regarding hot flash frequency, evaluation was based upon the number of hot flashes per day. The frequency of hot flashes was graded on a scale of 0-4, with 0 as none detected, 1 as 1-4/day (mild), 2 as 5-8/day (moderate), 3 as 9-12/day (severe), and 4 as more than 12/day (very severe).
# The severity of the hot flashes, reflecting hot flash duration, was also graded on a scale of 0-4, with 0 being not detected, 1 being mild (less than 1 minute), 2 moderate (1-2 minutes), 3 severe (2-3 minutes), and 4 very severe (greater than 4 minutes). This evaluation reflects the duration and intensity as rated by the individual.
# The sweating response was graded on a scale of 0-4 as well, with 0 being not detected, 1 being mild (minimally moist skin), 2 moderate (moisture of the skin), 3 severe (noticeable perspiration, hair, ears, neck, chest), and 4 very severe (soaking sweat).
# Falling asleep was also graded on a scale of 0-4, with 0 being no issue (less than 15 minutes), 1 being mild (15-20 minutes), 2 moderate (20-40 minutes), 3 severe (40-60 minutes), and 4 very severe (greater than 60 minutes).
# Wakings were graded on a scale of 0-4 as well, with 0 being not detected, 1 being mild (1-5 wakings/night), 2 moderate (5-10 wakings/night), 3 severe (10-15 wakings/night), and 4 very severe (greater than 15 wakings/night).
# The D2 receptor family (D2, D3 or D4) agonists ropinirole, rotigotine and pramipexole were examined, and contrasted with D2 receptor family antagonists chlorpromazine or haloperidol. Ropinirole and pramipexole were evaluated alone and with either alpha-2-adrenergic agonist tizanidine or clonidine.
# Venlafaxine, paroxetine, gabapentin, and pregabilin were also evaluated in comparison with tizanidine.
# [2] = system: women with menopausal symptoms including hot flashes; conditions: for benefit in sleep cycle: standard sedative hypnotics for insomnia; for hot flashes under existing medication: already treated for neuropathic pain and depression
# Procedure: The patients were treated by escalating the dose of ropinirole to 4 mg, testing the hypothesis of a dopaminergically regulated pathway within the central nervous system which impacts hot flashes.
# Therefore, the initial dose provided was 1 mg at bedtime, and the dose was raised as needed, every fourth day, to a maximum of 8 mg, if needed, usually at bedtime.
# Safety monitoring included making certain there were no issues with liver function, low blood pressure or unusual dreams as this was accomplished. Tizanidine could, if needed, be dosed again during the night without causing a morning “hangover” effect providing there was a four hour sleep window available.
# Ropinirole titration was initiated with 0.25 mg at bedtime, and if tolerated, by escalating the dose by 0.25 mg every fourth day to a maximum of 1 mg (i.e., 0.25 mg, 0.50 mg, 0.75 mg, 1 mg), until there was reduction in both the frequency and severity of hot flashes. If higher doses were needed, then both 1 mg, or later 2 mg and both 1 and 2 mg ropinirole tablets were used along with the continued titration by 0.25 mg steps every fourth day until a maximum of 4 mg was reached.
# [3] = system: women with menopausal vasomotor symptoms and sleep disruption; assay: Clinical study of eight women with menopausal vasomotor symptoms and sleep disruption, symptoms graded 1-4; format: in vivo; conditions: for effect on vasomotor symptoms (in words) / effect on sleep (in words): eight women; for effect on sleep (in words): agent alone; for Hot Flash Frequency / Sweating / Wakings / Falling Asleep / Hot Flash Severity: grade 1-4, average of eight women, ropinirole 4 mg, tizanidine 4 mg, ramelteon 8 mg; for Hot Flash Frequency: at bedtime for at least four weeks; for Hot Flash Frequency / Falling Asleep / Hot Flash Severity: untreated = 4; for Sweating / Wakings / Falling Asleep / Hot Flash Severity: at least four weeks; for Sweating / Wakings: untreated = 3
# Procedure: Patients were on each regimen at the doses cited for at least four weeks.
# Symptoms were evaluated on a scale from 1 to 4, with 1 being mild, 2 being moderate, 3 being severe, and 4 being a very severe expression of either vasomotor symptom frequency, severity, sweating, falling asleep and wakings during the night were evaluated for each patient and evaluate at the end of the treatment period. The findings were based on an average of the reported symptoms of the eight women studied.
# Specifically with respect to hot flash frequency, evaluation was based upon the number of hot flashes per day. The frequency of the hot flashes was graded on a scale of 1-4, with 1 as 1-4/day (mild), 2 as 5-8/day (moderate), 3 as 9-12/day (severe), and 4 as more than 12/day (very severe).
# The severity of the hot flashes was graded on a scale of 1-4, with 1 being mild (less than 1 minute), 2 moderate (1-2 minutes), 3 severe (2-3 minutes), and 4 very severe (greater than 4 minutes). This evaluation reflects the duration and intensity as rated by the individual.
# The sweating response was graded on a scale of 1-4, with 1 being mild (minimally moist skin), 2 moderate (moisture on skin), 3 severe (noticeable perspiration, hair, ears, neck, chest), and 4 very severe (soaking sweat).
# Falling asleep was graded on a scale of 1-4, with 1 being mild (15-20 minutes), 2 moderate (20-40 minutes), 3 severe (40-60 minutes), and 4 very severe (greater than 60 minutes).
# Wakings were graded on a scale of 1-4, with 1 being mild (1-5 wakings/night), 2 moderate (5-10 wakings/night), 3 severe (10-15 wakings/night), and 4 very severe (greater than 15 wakings/night).
# [4] = system: hot flashes, including vasomotor symptoms of menopause; assay: Observed activity of D2 family agonists tested in controlling hot flashes; format: in vivo; conditions: D2 family members tested to date
# [5] = up to four weeks, untreated = 3
# [6] = grade 0-4, average of six women, untreated = 3
# [7] = patients of the case studies, ropinirole escalated from 0.25 mg to 4 mg at bedtime
smiles,measurement,setting,value
"O=C(CCCN1CCC(O)(c2ccc(Cl)cc2)CC1)c1ccc(F)cc1 [Haloperidol, haloperidol]",effect on vasomotor / hot flash symptoms (in words),[1],aggravated menopausal symptoms
CN1C(=O)C(O)N=C(c2ccccc2)c2cc(Cl)ccc21 (stereo not shown) [temazepam],benefit in sleep cycle,[2]; patient three,no significant benefit in sleep cycle
O=C1CN=C(c2ccccc2Cl)c2cc([N+](=O)[O-])ccc2N1 [clonazepam],benefit in sleep cycle,[2]; patient three,no significant benefit in sleep cycle
"CCCN(CCC)CCc1cccc2c1CC(=O)N2 [Ropinirole, ropinirole]",Hot Flash Severity,[1]; [5],0
same,Hot Flash Frequency,[1]; [6],0
same,effect on sleep (in words),[1],limited impact on sleep
same,effect on vasomotor / hot flash symptoms (in words),[1],notable reduction in frequency and severity of vasomotor symptoms
same,effect on vasomotor symptoms (in words),[3],"notable, but incomplete reduction in frequency and severity of vasomotor symptoms"
same,effect on sleep (in words),[3],limited impact on sleep
same,Hot Flash Frequency,[3],1 (1 as 1-4/day (mild))
same,Sweating,[3],1
same,Wakings,[3],3 (3 severe (10-15 wakings/night))
same,Falling Asleep,[3],3 (3 severe (40-60 minutes))
same,Hot Flash Severity,[3],1 (1 being mild (less than 1 minute))
same,activity in controlling hot flashes,[4],unique activity
same,side effects,"[2]; patient one, ropinirole 4 mg daily at bedtime with tizanidine 8 mg",without side effects
same,vasomotor symptoms (hot flashes),"[2]; patient one, ropinirole 4 mg daily at bedtime with tizanidine 8 mg at bedtime, 15-20 hot flashes per day before",totally eliminated the vasomotor symptoms (hot flashes)
same,hot flashes on re-administration after removal,"[2]; patient three, ropinirole removed (symptoms returned) and re-administered at 4 mg",the hot flashes once again disappeared
same,side effects,"[2]; patient two, ropinirole 4 mg at bedtime with tizanidine 8 mg",without untoward side effects
same,frequency and severity of hot flashes,"[2]; patient two, ropinirole 4 mg at bedtime with tizanidine 8 mg at bedtime, 10-15 hot flashes per day before",complete resolution of the frequency and severity of the hot flashes
same,effect on hot flashes of menopause,[2]; [7],dramatic shutdown of previously intolerable hot flashes of menopause
same,side effects,[2]; [7],without side effects
"CCCN(CCc1cccs1)[C@H]1CCc2c(O)cccc2C1 [Rotigitine, rotigotine]",Hot Flash Severity,[1]; [5],0
same,Hot Flash Frequency,[1]; [6],0
same,Falling Asleep,"[1]; grade 0-4, average of six women, up to four weeks, untreated = 2",0 (0 being no issue (less than 15 minutes))
same,Sweating,"[1]; grade 0-4, average of six women, up to four weeks, untreated = 3",0
same,Wakings,"[1]; grade 0-4, average of six women, up to four weeks, untreated = 4",1 (1 being mild (1-5 wakings/night))
same,effect on sleep (in words),[1],limited impact on sleep
same,effect on vasomotor / hot flash symptoms (in words),[1],notable reduction in frequency and severity of vasomotor symptoms
same,activity in controlling hot flashes,[4],unique activity
"CN(C)CCCN1c2ccccc2Sc2ccc(Cl)cc21 [Chlorpromazine, chlorpromazine]",effect on vasomotor / hot flash symptoms (in words),[1],aggravated menopausal symptoms
COc1ccc(C(CN(C)C)C2(O)CCCCC2)cc1 (stereo not shown) [Venlafaxine],effect on vasomotor / hot flash symptoms (in words),[1],reduced hot flash symptoms over untreated patients
same,hot flashes under existing medication,[2]; patient two,developed these hot flash symptoms despite those medications
"Fc1ccc([C@@H]2CCNC[C@H]2COc2ccc3c(c2)OCO3)cc1 [Paroxetine, paroxetine]",effect on vasomotor / hot flash symptoms (in words),[1],reduced hot flash symptoms over untreated patients
c1cnc(N2CCN(Cc3ccc4c(c3)OCO4)CC2)nc1 [piribedil],activity in controlling hot flashes,[4],unique activity
"CC(C)C[C@H](CN)CC(=O)O [Pregabilin, pregabalin]",effect on vasomotor / hot flash symptoms (in words),[1],reduced hot flash symptoms over untreated patients
"CCC(=O)NCC[C@@H]1CCc2ccc3c(c21)CCO3 [Ramelteon, ramelteon]",effect on vasomotor symptoms (in words),[3],no impact on vasomotor symptoms
same,effect on sleep (in words),[3],only a limited impact on sleep
same,Hot Flash Frequency,[3],4 (4 as more than 12/day (very severe))
same,Sweating,[3],3
same,Wakings,[3],3 (3 severe (10-15 wakings/night))
same,Falling Asleep,[3],3 (3 severe (40-60 minutes))
same,Hot Flash Severity,[3],4 (4 very severe (greater than 4 minutes))
"Clc1ccc2nsnc2c1NC1=NCCN1 [Tizanidine, tizanidine]",effect on sleep (in words),[1],impressive effect on sleep
same,effect on vasomotor / hot flash symptoms (in words),[1],very modest reduction in vasomotor symptoms
same,effect on vasomotor symptoms (in words),[3],very modest reduction in vasomotor symptoms
same,effect on sleep (in words),[3],more impressive effect on sleep
same,Hot Flash Frequency,[3],3 (3 as 9-12/day (severe))
same,Sweating,[3],3
same,Wakings,[3],2 (2 moderate (5-10 wakings/night))
same,Falling Asleep,[3],2 (2 moderate (20-40 minutes))
same,Hot Flash Severity,[3],3 (3 severe (2-3 minutes))
same,sleep,"[2]; patient one, tizanidine 8 mg at bedtime","facilitate sleep, which it did"
same,sleep,"[2]; patient three, tizanidine 1 mg raised up to 8 mg at bedtime",able to sleep through the night
CCN(C(C)=O)c1cccc(-c2ccnc3c(C#N)cnn23)c1 [zaleplon],benefit in sleep cycle,[2]; patient three,no significant benefit in sleep cycle
"NCC1(CC(=O)O)CCCCC1 [Gabapentin, gabapentin]",effect on vasomotor / hot flash symptoms (in words),[1],reduced hot flash symptoms over untreated patients
same,hot flashes under existing medication,[2]; patient two,developed these hot flash symptoms despite those medications
"Clc1cccc(Cl)c1N=C1NCCN1 [Clonidine, clonidine]",effect on sleep (in words),[1],impressive effect on sleep
same,effect on vasomotor / hot flash symptoms (in words),[1],very modest reduction in vasomotor symptoms
same,hot flashes under existing medication,[2]; patient two,developed these hot flash symptoms despite those medications
Cc1ccc(-c2nc3ccc(C)cn3c2CC(=O)N(C)C)cc1 [zolpidem],benefit in sleep cycle,[2]; patient three,no significant benefit in sleep cycle
CC(C)(C#N)c1cc(Cn2cncn2)cc(C(C)(C)C#N)c1 [anastrozole],effect on hot flashes (side effect of aromatase inhibitor),"[2]; patient three, anastrozole 1 mg daily",exacerbated the hot flashes
CCCN[C@H]1CCc2nc(N)sc2C1 [Pramipexole],Hot Flash Severity,[1]; [5],0
same,Hot Flash Frequency,[1]; [6],0
